Laboratory results: patent US9109004B2, “Progesterone receptor antagonists” (Bayer Intellectual Property GmbH, priority 2010, dated 2015)

Molecular target: T1, human progesterone receptor A (Homo sapiens, UniProt P06401)
T1 construct: expressed in transfected cells; host or cells: SK-N-MC human neuroblastoma cells, stably transfected
T1 sequence (P06401 1-769 isoform P06401-2): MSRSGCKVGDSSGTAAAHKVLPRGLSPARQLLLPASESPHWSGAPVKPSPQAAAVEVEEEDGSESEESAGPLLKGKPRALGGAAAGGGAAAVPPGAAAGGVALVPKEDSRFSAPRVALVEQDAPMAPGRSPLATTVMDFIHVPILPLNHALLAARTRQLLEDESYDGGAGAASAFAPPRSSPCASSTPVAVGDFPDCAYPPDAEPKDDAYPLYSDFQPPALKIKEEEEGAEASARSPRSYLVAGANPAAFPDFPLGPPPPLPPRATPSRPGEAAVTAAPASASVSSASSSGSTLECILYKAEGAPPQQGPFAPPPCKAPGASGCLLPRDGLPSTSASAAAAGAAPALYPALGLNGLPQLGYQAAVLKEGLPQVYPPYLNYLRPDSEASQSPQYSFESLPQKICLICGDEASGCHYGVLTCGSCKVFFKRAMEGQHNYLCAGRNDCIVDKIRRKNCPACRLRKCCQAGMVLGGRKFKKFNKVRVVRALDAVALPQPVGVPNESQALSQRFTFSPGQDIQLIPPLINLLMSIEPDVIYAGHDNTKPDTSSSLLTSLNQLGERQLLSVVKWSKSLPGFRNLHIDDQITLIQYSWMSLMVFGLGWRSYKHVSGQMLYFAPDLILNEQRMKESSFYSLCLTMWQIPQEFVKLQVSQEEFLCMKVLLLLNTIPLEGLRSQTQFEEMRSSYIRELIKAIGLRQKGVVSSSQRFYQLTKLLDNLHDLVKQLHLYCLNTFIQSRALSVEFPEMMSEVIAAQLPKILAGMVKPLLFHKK
Test: Progesterone-receptor-antagonistic action in stably transfected SK-N-MC cells, MTV-LUC reporter (PR-A)
Assay type: cell-based
Details: antagonistic potency vs 0.1 nmol/l promegestone, 24 hours, luciferase
Procedure: Progesterone-Receptor-Antagonistic Action in Stable Transfectants of Human Neuroblastoma Cells (SK-N-MC Cells) with the Human Progesterone A or Progesterone B Receptor and an MTV-LUC Reporter Construct
SK-N-MC cells (human neuroblastoma cells) that have been stably transfected with plasmids that express the human progesterone receptor B (pRChPR-B-neo) or the human progesterone receptor A (pRChPR-A-neo) and a reporter construct (pMMTV-LUC), were incubated for 24 hours either in the absence (negative control) or in the presence of increasing amounts of the particular test compound (0.01 nmol/l, 0.1 nmol/l, 1 nmol/l, 10 nmol/l, 100 nmol/l and 1 μmol/l), to determine the agonistic efficacy. As positive control of reporter gene induction, the cells were treated with the synthetic gestagen promegestone (0.01 nmol/l, 0.1 nmol/l, 1 nmol/l, 10 nmol/l, 100 nmol/l and 1 μmol/l). For determination of the antagonistic activity, the cells were treated with 0.1 nmol/l promegestone and additionally with increasing amounts of the particular test compound (0.01 nmol/l, 0.1 nmol/l, 1 nmol/l, 10 nmol/l, 100 nmol/l and 1 μmol/l). The activity of the reporter gene LUC (LUC=luciferase) was determined in the cell lysates and was measured as RLU (relative light units). All measured values are given as % efficacy and as EC50 or IC50 concentrations.

Compound | IC50 [nM]
C[C@]12C[C@H](c3ccc(C(=O)N4CCCC4)cc3)C3=C4CCC(=O)C=C4CC[C@H]3[C@@H]1CC[C@@]2(O)C(F)(F)C(F)(F)F [Example 15, (11β,17β)-17-hydroxy-17-(pentafluoroethyl)-11-[4-(pyrrolidin-1-ylcarbonyl)phenyl]estra-4,9-dien-3-one] | 38
COc1cccc(CNC(=O)c2ccc([C@H]3C[C@@]4(C)[C@@H](CC[C@@]4(O)C(F)(F)C(F)(F)F)[C@@H]4CCC5=CC(=O)CCC5=C43)cc2)c1 [Example 53, 4-[(11β,17β)-17-hydroxy-3-oxo-17-(pentafluoroethyl)estra-4,9-dien-11-yl]-N-(3-methoxybenzyl)benzamide] | 29
C[C@]12C[C@H](c3ccc(C(=O)N4CCOCC4)cc3)C3=C4CCC(=O)C=C4CC[C@H]3[C@@H]1CC[C@@]2(O)C(F)(F)C(F)(F)F [Example 29, (11β,17β)-17-hydroxy-11-[4-(morpholin-4-ylcarbonyl)phenyl]-17-(pentafluoroethyl)estra-4,9-dien-3-one] | 39
C[C@]12C[C@H](c3ccc(C(=O)NCCN4CCCC4)cc3)C3=C4CCC(=O)C=C4CC[C@H]3[C@@H]1CC[C@@]2(O)C(F)(F)C(F)(F)F [Example 54, 4-[(11β,17β)-17-hydroxy-3-oxo-17-(pentafluoroethyl)estra-4,9-dien-11-yl]-N-[2-(pyrrolidin-1-yl)ethyl]benzamide] | 21
C[C@]12C[C@H](c3ccc(C(=O)Nc4cccc(C(=O)O)c4)cc3)C3=C4CCC(=O)C=C4CC[C@H]3[C@@H]1CC[C@@]2(O)C(F)(F)C(F)(F)F [Example 77, 3-({4-[(11β,17β)-17-Hydroxy-3-oxo-17-(pentafluoroethyl)estra-4,9-dien-11-yl]benzoyl}amino)benzoic acid] | 140
C[C@]12C[C@H](c3ccc(C(=O)NCc4ccncc4)cc3)C3=C4CCC(=O)C=C4CC[C@H]3[C@@H]1CC[C@@]2(O)C(F)(F)C(F)(F)F [Example 21, 4-[(11β,17β)-17-hydroxy-3-oxo-17-(pentafluoroethyl)estra-4,9-dien-11-yl]-N-(pyridin-4-ylmethyl)benzamide] | 51
COc1ccc(NC(=O)c2ccc([C@H]3C[C@@]4(C)[C@@H](CC[C@@]4(O)C(F)(F)C(F)(F)F)[C@@H]4CCC5=CC(=O)CCC5=C43)cc2)cc1 [Example 25, 4-[(11β,17β)-17-hydroxy-3-oxo-17-(pentafluoroethyl)estra-4,9-dien-11-yl]-N-(4-methoxyphenyl)benzamide] | 11.4
C[C@]12C[C@H](c3ccc(C(=O)N4CCN(c5ccncc5)CC4)cc3)C3=C4CCC(=O)C=C4CC[C@H]3[C@@H]1CC[C@@]2(O)C(F)(F)C(F)(F)F [Example 45, (11β,17β)-17-hydroxy-17-(pentafluoroethyl)-11-(4-{[4-(pyridin-4-yl)piperazin-1-yl]carbonyl}phenyl)estra-4,9-dien-3-one] | 26
C[C@]12C[C@H](c3ccc(C(=O)Nc4ccc(C(=O)O)cc4)cc3)C3=C4CCC(=O)C=C4CC[C@H]3[C@@H]1CC[C@@]2(O)C(F)(F)C(F)(F)F [Example 78, 4-({4-[(11β,17β)-17-Hydroxy-3-oxo-17-(pentafluoroethyl)estra-4,9-dien-11-yl]benzoyl}amino)benzoic acid] | 9.6
C[C@]12C[C@H](c3ccc(C(=O)N4CCN(Cc5cccnc5)CC4)cc3)C3=C4CCC(=O)C=C4CC[C@H]3[C@@H]1CC[C@@]2(O)C(F)(F)C(F)(F)F [Example 69, (11β,17β)-17-hydroxy-17-(pentafluoroethyl)-11-(4-{[4-(pyridin-3-ylmethyl)piperazin-1-yl]carbonyl}phenyl)estra-4,9-dien-3-one] | 7.3
C[C@]12C[C@H](c3ccc(C(=O)N4CCN(Cc5ccccn5)CC4)cc3)C3=C4CCC(=O)C=C4CC[C@H]3[C@@H]1CC[C@@]2(O)C(F)(F)C(F)(F)F [Example 68, (11β,17β)-17-hydroxy-17-(pentafluoroethyl)-11-(4-{[4-(pyridin-2-ylmethyl)piperazin-1-yl]carbonyl}phenyl)estra-4,9-dien-3-one] | 16

Further lines, results first:

IC50 [nM] | Compound
7.2 | C[C@]12C[C@H](c3ccc(C(=O)N4CCN(c5ccccc5)CC4)cc3)C3=C4CCC(=O)C=C4CC[C@H]3[C@@H]1CC[C@@]2(O)C(F)(F)C(F)(F)F [Example 30, (11β,17β)-17-hydroxy-17-(pentafluoroethyl)-11-{4-[(4-phenylpiperazin-1-yl)carbonyl]phenyl}estra-4,9-dien-3-one]
0.71 | CC(=O)Nc1ccc(NC(=O)c2ccc([C@H]3C[C@@]4(C)[C@@H](CC[C@@]4(O)C(F)(F)C(F)(F)F)[C@@H]4CCC5=CC(=O)CCC5=C43)cc2)cc1 [Example 52, N-(4-acetamidophenyl)-4-[(11β,17β)-17-hydroxy-3-oxo-17-(pentafluoroethyl)estra-4,9-dien-11-yl]benzamide]
1.4 | CN(CCc1cccnc1)C(=O)c1ccc([C@H]2C[C@@]3(C)[C@@H](CC[C@@]3(O)C(F)(F)C(F)(F)F)[C@@H]3CCC4=CC(=O)CCC4=C32)cc1 [Example 72, 4-[(11β,17β)-17-hydroxy-3-oxo-17-(pentafluoroethyl)estra-4,9-dien-11-yl]-N-methyl-N-[2-(pyridin-3-yl)ethyl]benzamide]
1.7 | COC(=O)N1CCN(C(=O)c2ccc([C@H]3C[C@@]4(C)[C@@H](CC[C@@]4(O)C(F)(F)C(F)(F)F)[C@@H]4CCC5=CC(=O)CCC5=C43)cc2)CC1 [Example 70, methyl-4-{4-[(11β,17β)-17-hydroxy-3-oxo-17-(pentafluoroethyl)estra-4,9-dien-11-yl]benzoyl}piperazine-1-carboxylate]
2.5 | C[C@]12C[C@H](c3ccc(C(=O)NCCc4cccnc4)cc3)C3=C4CCC(=O)C=C4CC[C@H]3[C@@H]1CC[C@@]2(O)C(F)(F)C(F)(F)F [Example 55, 4-[(11β,17β)-17-hydroxy-3-oxo-17-(pentafluoroethyl)estra-4,9-dien-11-yl]-N-[2-(pyridin-3-yl)ethyl]benzamide]
4.7 | C[C@]12C[C@H](c3ccc(C(=O)Nc4ccc(C(N)=O)cc4)cc3)C3=C4CCC(=O)C=C4CC[C@H]3[C@@H]1CC[C@@]2(O)C(F)(F)C(F)(F)F [Example 41, N-(4-carbamoylphenyl)-4-[(11β,17β)-17-hydroxy-3-oxo-17-(pentafluoroethyl)estra-4,9-dien-11-yl]benzamide]
7.3 | C[C@]12C[C@H](c3ccc(C(=O)NC4CC4)cc3)C3=C4CCC(=O)C=C4CC[C@H]3[C@@H]1CC[C@@]2(O)C(F)(F)C(F)(F)F [Example 42, N-cyclopropyl-4-[(11β,17β)-17-hydroxy-3-oxo-17-(pentafluoroethyl)estra-4,9-dien-11-yl]benzamide]
1.6 | C[C@]12C[C@H](c3ccc(C(=O)NCCc4ccccn4)cc3)C3=C4CCC(=O)C=C4CC[C@H]3[C@@H]1CC[C@@]2(O)C(F)(F)C(F)(F)F [Example 61, 4-[(11β,17β)-17-hydroxy-3-oxo-17-(pentafluoroethyl)estra-4,9-dien-11-yl]-N-[2-(pyridin-2-yl)ethyl]benzamide]
0.39 | C[C@]12C[C@H](c3ccc(C(=O)Nc4ccc(C(=O)Nc5ccccc5)cc4)cc3)C3=C4CCC(=O)C=C4CC[C@H]3[C@@H]1CC[C@@]2(O)C(F)(F)C(F)(F)F [Example 60, 4-[(11β,17β)-17-hydroxy-3-oxo-17-(pentafluoroethyl)estra-4,9-dien-11-yl]-N-[4-(phenylcarbamoyl)phenyl]benzamide]
6.3 | C[C@]12C[C@H](c3ccc(C(=O)N4CCN(S(C)(=O)=O)CC4)cc3)C3=C4CCC(=O)C=C4CC[C@H]3[C@@H]1CC[C@@]2(O)C(F)(F)C(F)(F)F [Example 67, (11β,17β)-17-hydroxy-11-(4-{[4-(methylsulphonyl)piperazin-1-yl]carbonyl}phenyl)-17-(pentafluoroethyl)estra-4,9-dien-3-one]
